Source: patent publication US20240246920A1, “TRIAZOLE DERIVATIVES WITH ANTIFUNGAL ACTIVITY” (King's College London, priority 2020, published 2024)
≈ marks a conversion by molar mass, not a printed value.

Tests used:
C. krusei NCPF3876 = assay: microbe, parasite or virus in culture; format: cell-based, Candida krusei; conditions: Pichia kudriavzevii, NCPF3876; Table 4, common panel; 24 hours, ≥50% inhibition; read-out: MIC C. krusei NCPF3876
Description: (§1) The minimum inhibitory concentration of test compounds were determined in a panel of Candida species (see Table 4 below), using the a serial dilution method in 96-well plates using the following protocol.
(§2) Starter cultures of fungal strains to be tested were grown in 3 mL of RPMI 2% glucose media incubated at 37° C. with shaking at 200 rpm overnight. The culture media used was 900 mL H2O; 10.4 g RPMI 1640 (with L-glutamine and a pH indicator but without bicarbonate); 34.5 g MOPS and 18 g glucose. The pH of the media was adjusted to 7.0 with 1 M sodium hydroxide.
(§3) Solutions of the compound to be tested were prepared by dissolving the compound in DMSO and subsequently into media to the desired concentrations. […] The last two rows of each plate were control rows containing the culture media alone and the media plus fungi.
(§4) The fungi starter cultures were diluted 1:10 in water in cuvettes. This was then further diluted to an optical density (OD600) of 0.01 in media. 100 μL of the fungi was added to each well giving a starting concentration of fungus of 0.5-5×10^5/mL. One species of fungus was used on each plate. The plates were then held at 37° C. for 24 hours.
(§5) A plate reader was used to measure growth in each well at OD530 nm and the MIC was determined for each test compound. The MIC is defined as the lowest concentration giving rise to inhibition of ≥50% of that of the drug-free control well containing the fungus and media.

C. albicans NCPF3281 = assay: Candida panel MIC, serial dilution in 96-well plates; format: cell-based, Candida albicans; conditions: Candida albicans, NCPF3281; Table 4, common panel; 24 hours, ≥50% inhibition; read-out: MIC C. albicans NCPF3281
Description: as §1, §2
(§6) Solutions of the compound to be tested were prepared by dissolving the compound in DMSO and subsequently into media to the desired concentrations. 200 μL of compound solution was then added to the wells of the 96-well plate using a serial dilution method row-by row of the plate to give a compound concentration gradient across the plate of from 128 μg/mL to 0.25 μg/mL. The last two rows of each plate were control rows containing the culture media alone and the media plus fungi.
as §4, §5

Candida auris TDG2512 = assay: as above; format: cell-based; conditions: Candidozyma auris, TDG2512; Table 4, extended panel; 24 hours, ≥50% inhibition; read-out: MIC Candida auris TDG2512
Description: as §1, §2, §6, §4, §5

C. auris TDG1912 = assay: as above; format: cell-based; conditions: Candidozyma auris, TDG1912; Table 4; 24 hours, ≥50% inhibition; read-out: MIC C. auris TDG1912
Description: as §1, §2, §6, §4, §5

C. tropicalis NCPF8760 = assay: as above; format: cell-based; conditions: NCPF8760, Table 4, common panel, 24 hours, ≥50% inhibition, read-out: MIC C. tropicalis NCPF8760
Description: as §1, §2, §6, §4, §5

Candida auris TDG1102 = assay: as above; format: cell-based; conditions: Candidozyma auris, TDG1102; Table 4, extended panel; 24 hours, ≥50% inhibition; read-out: MIC Candida auris TDG1102
Description: as §1, §2, §6, §4, §5

Candida auris TDG2211 = assay: microbe, parasite or virus in culture; format: cell-based; conditions: Candidozyma auris, TDG2211; Table 4, extended panel; 24 hours, ≥50% inhibition; read-out: MIC Candida auris TDG2211
Description: as §1, §2, §3, §4, §5
(§7) The Candida auris strains shown in Table 7 were either taken from the National Collection of Pathogenic Fungi (NCPF) or collected as part of ongoing surveillance studies. The strains were characterised as follows.

Candida auris TDG2506 = assay: microbe, parasite or virus in culture; format: cell-based; conditions: Candidozyma auris, TDG2506; Table 4, extended panel; 24 hours, ≥50% inhibition; read-out: MIC Candida auris TDG2506
Description: as §1, §2, §3, §4, §5, §7

C. glabrata NCPF8018 = assay: Candida panel MIC, serial dilution in 96-well plates; format: cell-based, Candida glabrata; conditions: Nakaseomyces glabratus, NCPF8018; Table 4, common panel; 24 hours, ≥50% inhibition; read-out: MIC C. glabrata NCPF8018
Description: as §1, §2, §3, §4, §5

C. auris 8977 = assay: as above; format: cell-based, Candida auris; conditions: Candidozyma auris, 8977; Table 4, extended panel; 24 hours, ≥50% inhibition; read-out: MIC C. auris 8977
Description: as §1, §2, §3, §4, §5, §7

C. auris 8984 = assay: as above; format: cell-based, Candida auris; conditions: Candidozyma auris, 8984; Table 4, extended panel; 24 hours, ≥50% inhibition; read-out: MIC C. auris 8984
Description: as §1, §2, §3, §4, §5, §7

C. auris 8971 = assay: as above; format: cell-based, Candida auris; conditions: Candidozyma auris, 8971; Table 4, extended panel; 24 hours, ≥50% inhibition; read-out: MIC C. auris 8971
Description: as §1, §2, §3, §4, §5, §7

C. parapsilosis NCPF3209 = assay: microbe, parasite or virus in culture; format: cell-based, Candida parapsilosis; conditions: Lodderomyces parapsilosis, NCPF3209; Table 4, common panel; 24 hours, ≥50% inhibition; read-out: MIC C. parapsilosis NCPF3209
Description: as §1, §2, §3, §4, §5

Compound	MIC (C. krusei NCPF3876) [µg/mL]	MIC (C. albicans NCPF3281) [µg/mL]	MIC (Candida auris TDG2512) [µg/mL]	MIC (C. auris TDG1912) [µg/mL]	MIC (C. tropicalis NCPF8760) [µg/mL]	MIC (Candida auris TDG1102) [µg/mL]	MIC (Candida auris TDG2211) [µg/mL]	MIC (Candida auris TDG2506) [µg/mL]	MIC (C. glabrata NCPF8018) [µg/mL]	MIC (C. auris 8977) [µg/mL]	MIC (C. auris 8984) [µg/mL]	MIC (C. auris 8971) [µg/mL]	MIC (C. parapsilosis NCPF3209) [µg/mL]
COCCOc1ccc(NC2CCN(CC(O)(Cn3cncn3)c3ccc(F)cc3F)CC2)cc1 (centres unmarked) [Example 96]	0.5 (≈ 1.03 µM)	0.0078 to 0.0156 (≈ 0.016 to 0.032 µM)	4 (≈ 8.2 µM)	0.125 (≈ 0.256 µM)	1 (≈ 2.05 µM)	0.06 (≈ 0.123 µM)	0.0156 to 0.06 (≈ 0.032 to 0.123 µM)	0.06 (≈ 0.123 µM)	4 (≈ 8.2 µM)	0.06 (≈ 0.123 µM)	0.25 (≈ 0.513 µM)	0.06 (≈ 0.123 µM)	0.0156 (≈ 0.032 µM)
CN1CCC(Oc2ccc(NC3CCN(CC(O)(Cn4cncn4)c4ccc(F)cc4F)CC3)cc2)CC1 (centres unmarked) [Example 98]	8 (≈ 15.2 µM)	0.125 (≈ 0.237 µM)	2 (≈ 3.8 µM)	> 8	> 8	> 8	> 8	> 8	8 (≈ 15.2 µM)	8 (≈ 15.2 µM)	> 8	8 (≈ 15.2 µM)	0.125 (≈ 0.237 µM)
Cc1ccc(-c2ccc(NC3C[C@@H]4CN(CC(O)(Cn5cncn5)c5ccc(F)cc5F)C[C@@H]4C3)cc2)cc1F (some centres unmarked) [Example 99]	1 (≈ 1.83 µM)	≤ 0.03	0.5 (≈ 0.913 µM)	16 (≈ 29.2 µM)	> 32	16 to 32 (≈ 29.2 to 58.4 µM)	0.125 to 16 (≈ 0.228 to 29.2 µM)	32 (≈ 58.4 µM)	8 (≈ 14.6 µM)	1 to 4 (≈ 1.83 to 7.3 µM)	32 (≈ 58.4 µM)	1 to 4 (≈ 1.83 to 7.3 µM)	≤ 0.03
OC(CN1C[C@H]2CC(Nc3ccc(N4CCCCC4)cc3)C[C@H]2C1)(Cn1cncn1)c1ccc(F)cc1F (some centres unmarked) [Example 100]	2 (≈ 3.83 µM)	≤ 0.03	0.25 (≈ 0.478 µM)	8 (≈ 15.3 µM)	8 (≈ 15.3 µM)	16 (≈ 30.6 µM)	2 (≈ 3.83 µM)	4 (≈ 7.65 µM)	2 (≈ 3.83 µM)	2 (≈ 3.83 µM)	4 (≈ 7.65 µM)	1 (≈ 1.91 µM)	≤ 0.03
OC(CN1C[C@H]2CC(Nc3ccc(F)cc3)C[C@H]2C1)(Cn1cncn1)c1ccc(F)cc1F (some centres unmarked) [Example 101]	1 (≈ 2.19 µM)	≤ 0.03	0.125 (≈ 0.273 µM)	1 (≈ 2.19 µM)	4 (≈ 8.74 µM)	2 (≈ 4.37 µM)	0.125 to 2 (≈ 0.273 to 4.37 µM)	4 (≈ 8.74 µM)	0.5 (≈ 1.09 µM)	0.25 (≈ 0.546 µM)	4 (≈ 8.74 µM)	0.25 (≈ 0.546 µM)	≤ 0.03
